Results on 17 compounds are retold here after patent publication US12577234B2, “Antagonists of the muscarinic acetylcholine receptor M4” (Vanderbilt University, priority 2017, dated 2026).

The target of the assay is T1, human mAChR M4 (Homo sapiens, UniProt P08173).
T1 construct: expressed in transfected cells; host or cells: CHO-K1 (ATCC), stably co-expressing chimeric G protein Gqi5
T1 sequence (P08173 1-479): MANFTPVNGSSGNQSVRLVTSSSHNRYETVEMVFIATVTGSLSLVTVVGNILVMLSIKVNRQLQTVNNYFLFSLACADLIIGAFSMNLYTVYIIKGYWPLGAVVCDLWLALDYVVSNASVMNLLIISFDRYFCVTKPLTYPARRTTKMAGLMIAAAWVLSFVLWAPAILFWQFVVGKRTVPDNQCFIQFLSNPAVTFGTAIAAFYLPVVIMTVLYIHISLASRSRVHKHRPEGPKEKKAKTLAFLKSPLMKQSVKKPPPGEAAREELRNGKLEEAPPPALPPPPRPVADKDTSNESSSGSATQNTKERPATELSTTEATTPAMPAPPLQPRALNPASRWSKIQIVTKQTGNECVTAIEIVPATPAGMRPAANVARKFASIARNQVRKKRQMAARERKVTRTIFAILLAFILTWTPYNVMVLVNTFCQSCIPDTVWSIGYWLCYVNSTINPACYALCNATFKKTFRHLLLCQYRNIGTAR
Kind of assay: mAChR M4 cell-based functional assay (calcium mobilization, EC80 acetylcholine), human M4. As to conditions: for Emin: human M4, % ACh maximum at 30 μM. In short, it runs like this:
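CHO-K1 cells stably expressing human M4 with chimeric Gqi5; intracellular calcium rise read on FDSS as fluorescence static ratio at 1 Hz. Compounds in 10-point 1:3 dilution series; IC50 taken as concentration-dependent decrease of the EC80 acetylcholine response, four-parameter logistic fit.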

Where [1] appears, read: Table 9, M4/Gqi5/CHO-K1 cells, decrease of EC80 acetylcholine response.
The mark [2] stands for this setting: Table 10, M4/Gqi5/CHO-K1 cells, decrease of EC80 acetylcholine response.

Where only a bound is given, the exact number is not on record here.

Regarding `Cc1cccnc1CN1C[C@H]2C[C@H](Nc3ccc(-c4cc(F)ccc4Cl)nn3)C[C@H]2C1` [Compound 35, (3aR,5s,6aS)-N-[6-(2-chloro-5-fluoro-phenyl)pyridazin-3-yl]-2-[(3-methyl-2-pyridyl)methyl]-3,3a,4,5,6,6a-hexahydro-1H-cyclopenta[c]pyrrol-5-amine], the 50% inhibitory concentration (IC50) under setting [1] was 0.0034 µM. Moreover, the Emin (Table 9) worked out at 6.1%.
As to `Fc1ccc(Cl)c(-c2ccc(N[C@H]3C[C@@H]4CN(Cc5cccnc5)C[C@@H]4C3)nn2)c1` [Compound 161, (3aR,5s,6aS)-N-[6-(2-chloro-5-fluoro-phenyl)pyridazin-3-yl]-2-(3-pyridylmethyl)-3,3a,4,5,6,6a-hexahydro-1H-cyclopenta[c]pyrrol-5-amine], the “Human M4 Emin” value (Table 10) came to 5%. Moreover, the IC50 under setting [2] was 0.0541 µM.
With `Fc1ccc(Cl)c(-c2ccc(N[C@H]3C[C@@H]4CN(Cc5ccc6c(c5)OCO6)C[C@@H]4C3)nn2)c1` [Compound 166, (3aR,5s,6a5)-2-(1,3-benzodioxol-5-ylmethyl)-N-[6-(2-chloro-5-fluoro-phenyl)pyridazin-3-yl]-3,3a,4,5,6,6a-hexahydro-1H-cyclopenta[c]pyrrol-5-amine], the “Human M4 Emin” value (Table 10) came out at 2%. For the same compound, the IC50 under setting [2] is 0.00619 µM.
Consider `Cc1cnn(C)c1-c1ccc(OCC2C[C@@H]3CN(CC4CCOCC4)C[C@@H]3C2)nn1` (stereo partly drawn) [Compound 84, (3aR,6aS)-5-[[6-(2,4-dimethylpyrazol-3-yl)pyridazin-3-yl]oxymethyl]-2-(tetrahydropyran-4-ylmethyl)-3,3a,4,5,6,6a-hexahydro-1H-cyclopenta[c]pyrrole], for which, under setting [1], the IC50 turned out to be 3.09 µM. Moreover, under “Table 9”, the Emin is 10.9%.
In the same order, the values of `CCCC(C)CN1C[C@H]2CC(COc3ccc(-c4cn(C)nc4C)nn3)C[C@H]2C1` (stereo partly drawn) [Compound 96, (3aR,6aS)-5-[[6-(1,3-dimethylpyrazol-4-yl)pyridazin-3-yl]oxymethyl]-2-(2-methylpentyl)-3,3a,4,5,6,6a-hexahydro-1H-cyclopenta[c]pyrrole] are 0.301 µM and 4.62%.
Turning to `Cc1cccnc1CN1C[C@H]2C[C@@H](Oc3ccc(-c4cn(C)nc4C)nn3)C[C@H]2C1` [Compound 52, (3aR,5r,6aS)-5-[6-(1,3-dimethylpyrazol-4-yl)pyridazin-3-yl]oxy-2-[(3-methyl-2-pyridyl)methyl]-3,3a,4,5,6,6a-hexahydro-1H-cyclopenta[c]pyrrole], the Emin (Table 9) turned out to be 26.4%. Moreover, for the setting “Table 9, μM”, the IC50 was over 10 µM.
Turning to `CC(=O)Nc1ccccc1-c1ccc(N[C@H]2C[C@@H]3CN(CC4CCOCC4)C[C@@H]3C2)nn1` [Compound 206, N-[2-[6-[[(3aR,5s,6aS)-2-(tetrahydropyran-4-ylmethyl)-3,3a,4,5,6,6a-hexahydro-1H-cyclopenta[c]pyrrol-5-yl]amino]pyridazin-3-yl]phenyl]acetamide], the “Human M4 Emin” value (Table 10) came to 38%. Moreover, the IC50 under setting [2] turned out to be 0.0574 µM.
As to `CC(C)(C)CCN1C[C@H]2CC(COc3ccc(-c4cc(F)ccc4Cl)nn3)C[C@H]2C1` (stereo partly drawn) [Compound 106, (3aR,6aS)-5-[[6-(2-chloro-5-fluoro-phenyl)pyridazin-3-yl]oxymethyl]-2-(3,3-dimethylbutyl)-3,3a,4,5,6,6a-hexahydro-1H-cyclopenta[c]pyrrole], the 50% inhibitory concentration (IC50) under setting [1] worked out at 0.143 µM. In addition, where the note is “Table 9”, the Emin is 3.60%.
On to `Fc1ccc(Cl)c(-c2ccc(OCC3C[C@@H]4CN(Cc5ccccn5)C[C@@H]4C3)nn2)c1` (stereo partly drawn) [Compound 117, (3aR,6aS)-5-[[6-(2-chloro-5-fluoro-phenyl)pyridazin-3-yl]oxymethyl]-2-(2-pyridylmethyl)-3,3a,4,5,6,6a-hexahydro-1H-cyclopenta[c]pyrrole], for which the IC50 under setting [1] turned out to be 1.46 µM. Besides, the Emin (Table 9) came to 4.82%.
As to `Cc1cnn(C)c1-c1ccc(OCC2C[C@@H]3CN(Cc4ccccc4F)C[C@@H]3C2)nn1` (stereo partly drawn) [Compound 87, (3aR,6aS)-5-[[6-(2,4-dimethylpyrazol-3-yl)pyridazin-3-yl]oxymethyl]-2-[(2-fluorophenyl)methyl]-3,3a,4,5,6,6a-hexahydro-1H-cyclopenta[c]pyrrole], the IC50 under setting [1] was found to be 4.01 µM. Moreover, where the note is “Table 9”, the Emin was 7.39%.
The like results for `Fc1ccc(Cl)c(-c2ccc(OCC3C[C@@H]4CN(CC5CCCCC5)C[C@@H]4C3)nn2)c1` (stereo partly drawn) [Compound 111, (3aR,6aS)-5-[[6-(2-chloro-5-fluoro-phenyl)pyridazin-3-yl]oxymethyl]-2-(cyclohexylmethyl)-3,3a,4,5,6,6a-hexahydro-1H-cyclopenta[c]pyrrole] were, in that order, 0.443 µM and 3.62%.
As to `Cc1cnn(C)c1-c1ccc(NC[C@H]2C[C@@H]3CN(CC(C)C(C)(C)C)C[C@@H]3C2)nn1` (stereo partly drawn) [Compound 65, N-[[(3aR,5s,6aS)-2-(2,3,3-trimethylbutyl)-3,3a,4,5,6,6a-hexahydro-1H-cyclopenta[c]pyrrol-5-yl]methyl]-6-(2,4-dimethylpyrazol-3-yl)pyridazin-3-amine], under setting [1], the IC50 worked out at 0.253 µM. Further, the Emin (Table 9) worked out at 4.16%.
For `Cc1nn(C)cc1-c1ccc(N[C@H]2C[C@@H]3CN(CC4CCCCC4)C[C@@H]3C2)nn1` [Compound 7, (3aR,5s,6aS)-2-(cyclohexylmethyl)-N-[6-(1,3-dimethylpyrazol-4-yl)pyridazin-3-yl]-3,3a,4,5,6,6a-hexahydro-1H-cyclopenta[c]pyrrol-5-amine], the half-inhibitory concentration (IC50) under setting [1] was 0.01 µM. Also, for the setting “Table 9”, the Emin was found to be 2.72%.
With “(3aR,6aS)-2-(5-bicyclo[2.2.2]oct-2-enylmethyl)-5-[[6-(1,3-dimethylpyrazol-4-yl)pyridazin-3-yl]oxymethyl]-3,3a,4,5,6,6a-hexahydro-1H-cyclopenta[clpyrrole [Compound 94]”, the 50% inhibitory concentration (IC50) under setting [1] was found to be 0.0426 µM. Also, the Emin (Table 9) is reported as 3.67%.
The like results for `Cc1nn(C)cc1-c1ccc(OCC2C[C@@H]3CN(Cc4ccc5c(c4)OCO5)C[C@@H]3C2)nn1` (stereo partly drawn) [Compound 105, (3aR,6aS)-2-(1,3-benzodioxol-5-ylmethyl)-5-[[6-(1,3-dimethylpyrazol-4-yl)pyridazin-3-yl]oxymethyl]-3,3a,4,5,6,6a-hexahydro-1H-cyclopenta[c]pyrrole] were, in that order, 0.329 µM and 5.63%.
For `Fc1ccc(Cl)c(-c2ccc(OCC3C[C@@H]4CN(Cc5ccc6c(c5)OCO6)C[C@@H]4C3)nn2)c1` (stereo partly drawn) [Compound 119, (3aR,6aS)-2-(1,3-benzodioxol-5-ylmethyl)-5-[[6-(2-chloro-5-fluoro-phenyl)pyridazin-3-yl]oxymethyl]-3,3a,4,5,6,6a-hexahydro-1H-cyclopenta[c]pyrrole], the IC50 under setting [1] came to 0.668 µM. The Emin (Table 9) is on record as 4.24%.
In the same order, the values of `CCCC(C)CN1C[C@H]2CC(COc3ccc(-c4c(C)cnn4C)nn3)C[C@H]2C1` (stereo partly drawn) [Compound 82, (3aR,6aS)-5-[[6-(2,4-dimethylpyrazol-3-yl)pyridazin-3-yl]oxymethyl]-2-(2-methylpentyl)-3,3a,4,5,6,6a-hexahydro-1H-cyclopenta[c]pyrrole] are 0.538 µM and 4.50%.
